What all share (test): Bacterial growth minimal inhibitory concentration, microdilution in cation-adjusted Mueller-Hinton Broth (CLSI M7-A7)
Holding throughout (format): cell-based
Background: In broth dilution the organism is exposed to a series of concentrations in liquid medium.

One test relates to K. Pneumoniae A-651. Conditions: multiply-resistant (in particular quinolone-resistant) strain; for MIC: Klebsiella pneumoniae, read-out: MIC for K. Pneumoniae A-651. The protocol:
(§1) Minimal Inhibitory Concentrations (MICs; mg/L) were determined in cation-adjusted Mueller-Hinton Broth by a microdilution method following the description given in “Methods for Dilution Antimicrobial Susceptibility Tests for Bacteria that Grow Aerobically”, Approved standard, 7th ed., Clinical and Laboratory Standards Institute (CLSI) Document M7-A7, Wayne, Pa., USA (2006).
(§2) All Example compounds were tested against several Gram-positive and Gram-negative bacteria. […] K pneumoniae A-651 is a multiply-resistant (in particular quinolone-resistant) strain, while E. coli ATCC25922 and P. aeruginosa ATCC27853 are quinolone-sensitive strains.

Another test deals with P. aeruginosa ATCC27853. Conditions: quinolone-sensitive strain; for MIC: Pseudomonas aeruginosa, ATCC27853, read-out: MIC for P. aeruginosa ATCC27853. The protocol: as §1, §2
For a further test, the system named is E. coli ATCC25922. Conditions: quinolone-sensitive strain; for MIC: Escherichia coli, ATCC25922, read-out: MIC for E. coli ATCC25922. As to the method: as §1, §2

The values below come from US20170355687A1, “ANTIBACTERIAL BENZOTHIAZOLE DERIVATIVES” (Actelion Pharmaceuticals Ltd, priority 2014, published 2017).

Values after ≈ are worked out from the molar mass of the structure shown.

The MIC is the lowest concentration found to suppress growth. Regarding `C[C@@](CCc1nc2ccc(C#Cc3ccc(C4(CO)CC4)cc3)cc2s1)(C(=O)NO)S(C)(=O)=O` [Example 11, (R)-N-hydroxy-4-(6-((4-(1-(hydroxymethyl)cyclopropyl)phenyl)ethynyl)benzo[d]thiazol-2-yl)-2-methyl-2-(methylsulfonyl)butanamide], the MIC in the test on K. Pneumoniae A-651 worked out at 0.5 µg/mL (≈ 1 µM); in the test on P. aeruginosa ATCC27853, 4 µg/mL (≈ 8.02 µM); in the test on E. coli ATCC25922, 0.125 µg/mL (≈ 0.251 µM).
As to `C[C@@](CCc1nc2ccc(C#CC#CC3(CO)CCC3)cc2s1)(C(=O)NO)S(C)(=O)=O` [Example 12, (R)-N-hydroxy-4-(6-((1-(hydroxymethyl)cyclobutyl)buta-1,3-diyn-1-yl)benzo[d]thiazol-2-yl)-2-methyl-2-(methylsulfonyl)butanamide], the MIC in the test on K. Pneumoniae A-651 came to 0.5 µg/mL (≈ 1.09 µM); with P. aeruginosa ATCC27853, 2 µg/mL (≈ 4.34 µM); with E. coli ATCC25922, 0.125 µg/mL (≈ 0.271 µM).
`C[C@@](CCc1nc2ccc(C#CC#C[C@@H]3C[C@@H](O)[C@@H](O)C3)cc2s1)(C(=O)NO)S(C)(=O)=O` [Example 13, (R)-4-(6-(((1s,3R,4S)-3,4-dihydroxycyclopentyl)buta-1,3-diyn-1-yl)benzo[d]thiazol-2-yl)-N-hydroxy-2-methyl-2-(methylsulfonyl)butanamide]: the “MIC for K. Pneumoniae A-651” value in the test on K. Pneumoniae A-651 came out at 0.5 µg/mL. In the test with P. aeruginosa ATCC27853, the “MIC for P. aeruginosa ATCC27853” value came to 1 µg/mL. The “MIC for E. coli ATCC25922” value with E. coli ATCC25922 amounted to 0.25 µg/mL.
Regarding `C[C@@](CCc1nc2ccc(C#CC#CCC3(O)COC3)cc2s1)(C(=O)NO)S(C)(=O)=O` [Example 14, (R)-N-hydroxy-4-(6-(5-(3-hydroxyoxetan-3-yl)penta-1,3-diyn-1-yl)benzo[d]thiazol-2-yl)-2-methyl-2-(methylsulfonyl)butanamide], the results for the MIC with K. Pneumoniae A-651, with P. aeruginosa ATCC27853 and in the test with E. coli ATCC25922 were 1 µg/mL (≈ 2.16 µM), 1 µg/mL (≈ 2.16 µM) and 0.5 µg/mL (≈ 1.08 µM), respectively.
On to `C[C@@]1(C#CC#Cc2ccc3nc(CC[C@](C)(C(=O)NO)S(C)(=O)=O)sc3c2)C[C@H]1CO` [Example 15, (R)-N-hydroxy-4-(6-(((1R,2R)-2-(hydroxymethyl)-1-methylcyclopropyl)buta-1,3-diyn-1-yl)benzo[d]thiazol-2-yl)-2-methyl-2-(methylsulfonyl)butanamide], for which the MIC with K. Pneumoniae A-651 came to 0.5 µg/mL (≈ 1.09 µM); with P. aeruginosa ATCC27853 it was 1 µg/mL (≈ 2.17 µM); with E. coli ATCC25922, 0.125 µg/mL (≈ 0.271 µM).
Consider `C[C@@](CCc1nc2ccc(C#CC#C[C@@H]3CC[C@@H](N)CO3)cc2s1)(C(=O)NO)S(C)(=O)=O` [Example 16, (R)-4-(6-(((2S,5R)-5-aminotetrahydro-2H-pyran-2-yl)buta-1,3-diyn-1yl)benzo[d]thiazol-2-yl)-N-hydroxy-2-methyl-2-(methylsulfonyl)butanamide], for which the minimal inhibitory concentration (MIC) in the test with K. Pneumoniae A-651 is 8 µg/mL (≈ 16.8 µM); in the test on P. aeruginosa ATCC27853 it was 4 µg/mL (≈ 8.41 µM); with E. coli ATCC25922, 4 µg/mL (≈ 8.41 µM).
In the case of `CN(C)CC#CC#Cc1ccc2nc(CC[C@](C)(C(=O)NO)S(C)(=O)=O)sc2c1` [Example 17, (R)-4-(6-(5-(dimethylamino)penta-1,3-diyn-1-yl)benzo[d]thiazol-2-yl)-N-hydroxy-2-methyl-2-(methylsulfonyl)butanamide], the figures for the MIC with K. Pneumoniae A-651, in the test on P. aeruginosa ATCC27853 and in the test with E. coli ATCC25922 were 0.25 µg/mL (≈ 0.577 µM), 2 µg/mL (≈ 4.61 µM) and 0.125 µg/mL (≈ 0.288 µM), respectively.
For the compound `C[C@@](CCc1nc2ccc(C#CC#CC3(O)CCOCC3)cc2s1)(C(=O)NO)S(C)(=O)=O` [Example 18, (R)-N-hydroxy-4-(6-((4-hydroxytetrahydro-2H-pyran-4-yl)buta-1,3-diyn-1-yl)benzo[d]thiazol-2-yl)-2-methyl-2-(methylsulfonyl)butanamide], the minimal inhibitory concentration (MIC) with K. Pneumoniae A-651 is 2 µg/mL (≈ 4.2 µM); with P. aeruginosa ATCC27853, 2 µg/mL (≈ 4.2 µM); in the test with E. coli ATCC25922, 1 µg/mL (≈ 2.1 µM).
For the compound `C[C@@](CCc1nc2ccc(C#CC#CC3CCNCC3)cc2s1)(C(=O)NO)S(C)(=O)=O` [Example 19, (R)-N-hydroxy-2-methyl-2-(methylsulfonyl)-4-(6-(piperidin-4-ylbuta-1,3-diyn-1-yl)benzo[d]thiazol-2-yl)butanamide], the MIC was 16 µg/mL (≈ 34.8 µM) with K. Pneumoniae A-651, 4 µg/mL (≈ 8.7 µM) with P. aeruginosa ATCC27853 and 8 µg/mL (≈ 17.4 µM) with E. coli ATCC25922.
As for `C[C@@](CCc1nc2ccc(C#CC#CC3(CO)COC3)cc2s1)(C(=O)NO)S(C)(=O)=O` [Example 20, (R)-N-hydroxy-4-(6-((3-(hydroxymethyl)oxetan-3-yl)buta-1,3-diyn-1-yl)benzo[d]thiazol-2-yl)-2-methyl-2-(methylsulfonyl)butanamide], the MIC with K. Pneumoniae A-651 worked out at 0.5 µg/mL (≈ 1.08 µM); in the test on P. aeruginosa ATCC27853, 1 µg/mL (≈ 2.16 µM); in the test on E. coli ATCC25922, 0.5 µg/mL (≈ 1.08 µM).
As to `C[C@@](CCc1nc2ccc(C#CC#CC3CCN(C(=O)CO)CC3)cc2s1)(C(=O)NO)S(C)(=O)=O` [Example 22, (R)-N-hydroxy-4-(6-((1-(2-hydroxyacetyl)piperidin-4-yl)buta-1,3-diyn-1-yl)benzo[d]thiazol-2-yl)-2-methyl-2-(methylsulfonyl)butanamide], the MIC in the test with K. Pneumoniae A-651 was determined as 1 µg/mL (≈ 1.93 µM); in the test with P. aeruginosa ATCC27853 it was 2 µg/mL (≈ 3.86 µM); in the test with E. coli ATCC25922, 0.5 µg/mL (≈ 0.966 µM).
For `C[C@@](CCc1nc2ccc(C#CC#CC3CN(C(=O)CO)C3)cc2s1)(C(=O)NO)S(C)(=O)=O` [Example 25, (R)-N-hydroxy-4-(6-((1-(2-hydroxyacetyl)azetidin-3-yl)buta-1,3-diyn-1-yl)benzo[d]thiazol-2-yl)-2-methyl-2-(methylsulfonyl)butanamide], the MIC was determined as 1 µg/mL (≈ 2.04 µM) in the test with K. Pneumoniae A-651, 1 µg/mL (≈ 2.04 µM) with P. aeruginosa ATCC27853 and 0.5 µg/mL (≈ 1.02 µM) with E. coli ATCC25922.
Take `C[C@]1(CO)C[C@@H]1C#CC#Cc1ccc2nc(CC[C@](C)(C(=O)NO)S(C)(=O)=O)sc2c1` [Example 26, (R)-N-hydroxy-4-(6-(((1R,2S)-2-(hydroxymethyl)-2-methylcyclopropyl)buta-1,3-diyn-1-yl)benzo[d]thiazol-2-yl)-2-methyl-2-(methylsulfonyl)butanamide]: the MIC in the test with K. Pneumoniae A-651 was 0.125 µg/mL (≈ 0.271 µM); with P. aeruginosa ATCC27853, 0.5 µg/mL (≈ 1.09 µM); in the test with E. coli ATCC25922, 0.063 µg/mL (≈ 0.137 µM).
Take `C[C@@](CCc1nc2ccc(C#CC#C[C@H]3C[C@]3(F)CO)cc2s1)(C(=O)NO)S(C)(=O)=O` [Example 27, (R)-4-(6-(((1R,2R)-2-fluoro-2-(hydroxymethyl)cyclopropyl)buta-1,3-diyn-1-yl)benzo[d]thiazol-2-yl)-N-hydroxy-2-methyl-2-(methylsulfonyl)butanamide]: the results for the MIC with K. Pneumoniae A-651, with P. aeruginosa ATCC27853 and in the test with E. coli ATCC25922 were 0.125 µg/mL (≈ 0.269 µM), 0.25 µg/mL (≈ 0.538 µM) and 0.063 µg/mL (≈ 0.136 µM), respectively.
